Data taken from patent US20240058460A1, “METHODS AND COMPOUNDS FOR MODULATING HUNTINGTON'S DISEASE” (Design Therapeutics, Inc., priority 2022, published 2024).

Tests used:
Type in all cases: cell-based
[1] = tested on: human HTT C allele (SNP rs362331C/T) mRNA in GM09197 fibroblasts; experiment: HTT mRNA, allele-specific RT-PCR in GM09197 fibroblasts, C allele; settings: for GM 09197 E min 48 Hr C Allele (%): lowest % HTT observed at 0.5 nM to 1000 nM compound; for IC50: Homo sapiens, Fibroblast, 48 hr, C allele HTT mRNA normalized to GAPDH, relative to vehicle
Experimental: (§1) Molecular Biology Toolkit: • qPCR primer probe sets: • RNA input normalization was assessed utilizing human glyceraldehyde 3-phosphate dehydrogenase (hGAPDH) TaqMan assay (ThermoFisher cat #4351370) or Human Cyclophillin ([…]) TaqMan assay (ThermoFisher cat #4351372) • Total HTT detection was assessed utilizing human Htt TaqMan assay (ThermoFisher cat #4331182) • Allele-specific detection of human HTT expression in HD cells containing the SNP rs362331C/T (Exon 50): for each assay, allele-specific probes to detect the SNP variant contained locked nucleic acid bases to improve allele discrimination, as compared to unmodified DNA probes. • 362331-F (331 forward primer) • 362331-R (331 reverse primer) • 362331-C probe: TCC CTC ATC+C+AC TGT GT • 362331-T probe: CTC+A+T+C+T+A+C TGT GT • qPCR was performed using Agpath ID one-step reverse transcriptase polymerase chain reaction (RT-PCR) reagent
(§2) Screening of HD molecules methods: GM09197 and/or GM04022 fibroblasts were cultured in T175 flasks incubated at 37° C. and 5% CO2. Once confluency was reached, the media was removed, the cells were washed with 1×PBS, and cells were dissociated using TrypLE™ Express Enzyme. Media was added to the enzyme and collected into a 15-mL conical tube and centrifuged at 500×g for 5 minutes to pellet the cells. Media and enzyme were aspirated using a serological pipette. Cells were resuspended in fresh media and counted using a Countess 3 Automated Cell Counter. Cells were plated at a density of 15,000 cells/well in a tissue culture-treated polystyrene 96-well dish and incubated at 37° C. and 5% CO2 overnight. The next day, media was removed using an 8-channel aspirator. 200 μL media/well are added back into the plate. The molecules are formulated to 1 mM and are dispensed using a Multidrop™ Pico 8 Digital Dispenser. After a 48-hour incubation with compounds, media was removed from plates, cells were washed with 1×PBS, and cells were lysed in 40 μL per well guanidinium thiocyanate buffer. RNA was isolated and purified in 382-well glass fiber column plates using chaotropic salts. Human mtHTT, wtHTT, and GAPDH mRNA were measured via RT-PCR using the ThermoFisher QuantStudio™ 7 Flex System in 384-well format. Results of HTT levels were normalized to GAPDH mRNA levels. Normalized HTT mRNA levels were expressed relative to vehicle-treated samples to assess fold change after molecule treatment.
(§3) Emin for each compound is the lowest % HTT concentration observed within a compound concentration of 0.5 nM to 1000 nM.

[2] = tested on: human HTT T allele (SNP rs362331C/T) mRNA in GM09197 fibroblasts; experiment: HTT mRNA, allele-specific RT-PCR in GM09197 fibroblasts, T allele; settings: for IC50: Homo sapiens, Fibroblast, 48 hr, T allele HTT mRNA normalized to GAPDH, relative to vehicle; for Gm09197 Emin 48 hr T Allele (%): lowest % HTT observed at 0.5 nM to 1000 nM compound
Experimental: as §1, §2, §3

[3] = tested on: human HTT C allele (SNP rs362331C/T) mRNA in GM04022 fibroblasts; experiment: HTT mRNA, allele-specific RT-PCR in GM04022 fibroblasts, C allele; settings: for GM 04022Emin 48 hr C Allele: lowest % HTT observed at 0.5 nM to 1000 nM compound
Experimental: as §1
as §2, with “After a 48-hour incubation with compounds, media was removed from plates, cells were washed with 1×PBS, and cells were lysed in 40 μL per well guanidinium thiocyanate buffer. RNA was isolated and purified in 382-well glass fiber column plates using chaotropic salts.” left out, “Results of HTT levels were normalized to GAPDH mRNA levels. Normalized HTT mRNA levels were expressed relative to vehicle-treated samples to assess fold change after molecule treatment.” left out

[4] = tested on: human HTT T allele (SNP rs362331C/T) mRNA in GM04022 fibroblasts; experiment: HTT mRNA, allele-specific RT-PCR in GM04022 fibroblasts, T allele; settings: for IC50: Homo sapiens, Fibroblast, 48 hr, T allele HTT mRNA normalized to GAPDH, relative to vehicle; for GM04022 Emin 48 hr T Allele: lowest % HTT observed at 0.5 nM to 1000 nM compound
Experimental: as §1, §2, §3

SMILES	GM 09197 E min 48 Hr C Allele (%) [1]	IC50 [2] [µM]	Gm09197 Emin 48 hr T Allele (%) [2]	GM 04022Emin 48 hr C Allele [3]	IC50 [4] [µM]	GM04022 Emin 48 hr T Allele [4]	IC50 [1] [µM]	IC50 ([3]; Homo sapiens, Fibroblast, 48 hr, C allele HTT mRNA normalized to GAPDH, relative to vehicle) [µM]
Cn1cc(NC(=O)c2nc(NC(=O)CCNC(=O)c3cc(NC(=O)c4nccn4C)cn3C)cn2C)cc1C(=O)NCCCC(=O)Nc1cn(C)c(C(=O)NCCC(=O)Nc2cc(C(=O)Nc3cn(C)c(C(=O)NCCC(=O)NCCOCCOCCOCCOCCOCCOCCOCCOCCOCCOCCOCCOCCOCCOCCOCCOc4ccc(NC(=O)c5cc6c(-c7cc(S(C)(=O)=O)ccc7Oc7ccc(F)cc7F)cn(C)c(=O)c6[nH]5)cc4)n3)n(C)c2)n1 [Compound A-2]	A (A>90%)	0.032	C (C<80%)	A (A>90%)	> 1	C (C<80%)		
CC(=O)N1c2ccc(-c3ccn(-c4ccc(OCCOCCOCCOCCOCCOCCOCCOCCOCCNC(=O)CCNC(=O)c5nc(NC(=O)c6cc(NC(=O)CCNC(=O)c7nc(NC(=O)CCCNC(=O)c8cc(NC(=O)c9nc(NC(=O)CCNC(=O)c%10cc(NC(=O)c%11nccn%11C)cn%10C)cn9C)cn8C)cn7C)cn6C)cn5C)cc4)n3)cc2[C@H](Nc2ccc(C#N)cc2)C[C@@H]1C [Compound A-59]		> 1					> 1	
CCNS(=O)(=O)c1ccc(Oc2ccc(OCCOCCOCCOCCOCCOCCOCCOCCOCCOCCOCCOCCOCCOCCOCCOCCNC(=O)CCNC(=O)c3nc(NC(=O)c4cc(NC(=O)CCNC(=O)c5nc(NC(=O)CCCNC(=O)c6cc(NC(=O)c7nc(NC(=O)CCNC(=O)c8cc(NC(=O)c9nccn9C)cn8C)cn7C)cn6C)cn5C)cn4C)cn3C)cc2F)c(-c2cn(C)c(=O)c3[nH]ccc23)c1 [Compound A-68]	A (A>90%)	0.017	C (C<80%)					
CCS(=O)(=O)Nc1ccc(Oc2ccc(F)cc2F)c(-c2cn(C)c(=O)c3[nH]c(C(=O)Nc4ccc(OCCOCCOCCOCCOCCOCCOCCOCCOCCOCCOCCOCCOCCOCCOCCOCCNC(=O)CCNC(=O)c5nc(NC(=O)c6cc(NC(=O)CCNC(=O)c7nc(NC(=O)OCCNC(=O)c8cc(NC(=O)c9nc(NC(=O)CCNC(=O)c%10cc(NC(=O)c%11nccn%11C)cn%10C)cn9C)cn8C)cn7C)cn6C)cn5C)cc4)cc23)c1 [Compound A-72]		> 1	A (A>90%)				> 1	
Cc1sc2c(c1C)C(c1ccc(Cl)cc1)=N[C@@H](CC(=O)Nc1ccc(OCCOCCOCCOCCOCCOCCOCCOCCOCCOCCOCCOCCOCCOCCOCCOCCNC(=O)CCNC(=O)c3nc(NC(=O)c4cc(NC(=O)CCNC(=O)c5nc(NC(=O)OCCNC(=O)c6cc(NC(=O)c7nc(NC(=O)CCNC(=O)c8cc(NC(=O)c9nccn9C)cn8C)cn7C)cn6C)cn5C)cn4C)cn3C)cc1)c1nnc(C)n1-2 [Compound A-73]	A (A>90%)	> 1	A (A>90%)				> 1	
CCS(=O)(=O)Nc1ccc(Oc2ccc(F)cc2F)c(-c2cn(C)c(=O)c3[nH]c(C(=O)Nc4ccc(OCCOCCOCCOCCOCCOCCOCCOCCOCCOCCOCCOCCOCCOCCOCCOCCNC(=O)CCNC(=O)c5nc(NC(=O)c6cc(NC(=O)CCNC(=O)c7nc(NC(=O)NCCNC(=O)c8cc(NC(=O)c9nc(NC(=O)CCNC(=O)c%10cc(NC(=O)c%11nccn%11C)cn%10C)cn9C)cn8C)cn7C)cn6C)cn5C)cc4)cc23)c1 [Compound A-74]		> 1	A (A>90%)				> 1	
Cc1sc2c(c1C)C(c1ccc(Cl)cc1)=N[C@@H](CC(=O)Nc1ccc(OCCOCCOCCOCCOCCOCCOCCOCCOCCOCCOCCOCCOCCOCCOCCOCCNC(=O)CCNC(=O)c3nc(NC(=O)c4cc(NC(=O)CCNC(=O)c5nc(NC(=O)NCCNC(=O)c6cc(NC(=O)c7nc(NC(=O)CCNC(=O)c8cc(NC(=O)c9nccn9C)cn8C)cn7C)cn6C)cn5C)cn4C)cn3C)cc1)c1nnc(C)n1-2 [Compound A-75]	A (A>90%)	> 1	A (A>90%)				> 1	
C/C=C/Cn1cc(-c2cc(OC)c(C(=O)N3CCN(CCOCCOCCOCCOCCOCCOCCOCCOCCOCCOCCOCCOCCOCCOCCOCCNC(=O)CCNC(=O)c4nc(NC(=O)c5cc(NC(=O)CCNC(=O)c6nc(NC(=O)CCCNC(=O)c7cc(NC(=O)c8nc(NC(=O)CCNC(=O)c9cc(NC(=O)c%10nccn%10C)cn9C)cn8C)cn7C)cn6C)cn5C)cn4C)CC3)cc2OC)c2cc[nH]c2c1=O [Compound A-76]	A (A>90%)	> 1	A (A>90%)	A (A>90%)	> 1	A (A>90%)	> 1	> 1
